Results from ChEMBL document CHEMBL1201862, “PubChem BioAssay data set” (2004).
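96-well plates; 48 h exposure; 5 concentrations. Endpoints by linear interpolation between flanking doses. Not reached: highest tested concentration assigned. The concentration for 50% growth inhibition is given as GI50.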 The source made the active and inactive calls. No stated cut-off is given here; in the data, active = GI50 up to about 1.1 µM and inactive = higher.

Tests used:
Assay in all cases: growth of human tumour cells (NCI), 48 h
[1] = system: NCI-H23
[2] = system: ACHN
[3] = system: Hs-578T
[4] = system: SK-MEL-28
[5] = system: MDA-MB-435
[6] = system: IGROV-1
[7] = system: SN12C
[8] = system: 786-0
[9] = system: UO-31
[10] = system: OVCAR-8
[11] = system: NCI/ADR-RES
[12] = system: NCI-H522
[13] = system: PC-3
[14] = system: RXF 393
[15] = system: A498
[16] = system: CAKI-1
[17] = system: Malme-3M
[18] = system: SNB-19
[19] = system: LOX IMVI
[20] = system: M14
[21] = system: SF-295
[22] = system: HT-29
[23] = system: MCF7
[24] = system: MDA-N
[25] = system: COLO 205
[26] = system: NCI-H226
[27] = system: UACC-257
[28] = system: EKVX
[29] = system: CCRF-CEM
[30] = system: A549
[31] = system: SNB-75
[32] = system: T47D
[33] = system: SK-MEL-2
[34] = system: SW-620
[35] = system: OVCAR-3
[36] = system: BT-549
[37] = system: OVCAR-4
[38] = system: U-251
[39] = system: HOP-92
[40] = system: SF-268
[41] = system: HCT-15
[42] = system: NCI-H460
[43] = system: HCT-116
[44] = system: SF-539
[45] = system: DU-145
[46] = system: MOLT-4
[47] = system: OVCAR-5
[48] = system: KM12
[49] = system: UACC-62
[50] = system: TK-10
[51] = system: SK-OV-3
[52] = system: HOP-62
[53] = system: SK-MEL-5

Compound: CCCCCCCCCCCCCCCCCCNc1ccn(C2OC(COP(=O)(O)OCC3CCC(n4cnc5c(=O)[nH]cnc54)O3)C(O)C2O)c(=O)n1 (stereo not drawn)
- GI50 [1]: > 100 µM (inactive)
- GI50 [2]: > 100 µM (inactive)
- GI50 [3]: > 100 µM (inactive)
- GI50 [4]: > 100 µM (inactive)
- GI50 [5]: > 100 µM (inactive)
- GI50 [6]: 84.1 µM (inactive)
- GI50 [7]: > 100 µM (inactive)
- GI50 [8]: 43.5 µM (inactive)
- GI50 [9]: > 100 µM (inactive)
- GI50 [10]: > 100 µM (inactive)
- GI50 [11]: > 100 µM (inactive)
- GI50 [12]: 51.5 µM (inactive)
- GI50 [13]: 14.2 µM (inactive)
- GI50 [14]: 19.9 µM (inactive)
- GI50 [15]: > 100 µM (inactive)
- GI50 [16]: > 100 µM (inactive)
- GI50 [17]: > 100 µM (inactive)
- GI50 [18]: > 100 µM (inactive)
- GI50 [19]: > 100 µM (inactive)
- GI50 [20]: > 100 µM (inactive)
- GI50 [21]: > 100 µM (inactive)
- GI50 [22]: > 100 µM (inactive)
- GI50 [23]: > 100 µM (inactive)
- GI50 [24]: > 100 µM (inactive)
- GI50 [25]: > 100 µM (inactive)
- GI50 [26]: > 100 µM (inactive)
- GI50 [27]: > 100 µM (inactive)
- GI50 [28]: > 100 µM (inactive)
- GI50 [29]: 29.3 µM (inactive)
- GI50 [30]: > 100 µM (inactive)
- GI50 [31]: > 100 µM (inactive)
- GI50 [32]: 95.5 µM (inactive)
- GI50 [33]: > 100 µM (inactive)
- GI50 [34]: > 100 µM (inactive)
- GI50 [35]: > 100 µM (inactive)
- GI50 [36]: > 100 µM (inactive)
- GI50 [37]: > 100 µM (inactive)
- GI50 [38]: > 100 µM (inactive)
- GI50 [39]: > 100 µM (inactive)
- GI50 [40]: > 100 µM (inactive)
- GI50 [41]: 97.5 µM
- GI50 [42]: > 100 µM (inactive)
- GI50 [43]: > 100 µM (inactive)
- GI50 [44]: 83.8 µM (inactive)
- GI50 [45]: > 100 µM (inactive)
- GI50 [46]: > 100 µM (inactive)
- GI50 [47]: 35.4 µM (inactive)
- GI50 [48]: > 100 µM (inactive)
- GI50 [49]: > 100 µM (inactive)
- GI50 [50]: 19.5 µM (inactive)
- GI50 [51]: > 100 µM (inactive)
- GI50 [52]: > 100 µM (inactive)
- GI50 [53]: > 100 µM (inactive)
